# Laboratory results: US5442077A, “Benzo[B]Furancarboxamide derivatives, process for the preparation of same and use thereof for improving hypermotility” (Sanwa Kagaku Kenkyusho Co., Ltd., priority 1993, dated 1995)
# Counter-ions that a name gives are not always drawn.
# How the values were obtained:
# 5-HT4 receptor = target: T1, 5-HT4 receptor (Rattus norvegicus, UniProt Q62758); test: Agonisting Action to 5-HT4 Receptor (relaxation of carbachol-treated oesophageal mucous membrane muscle sample); type: cell-based; settings: negative logarithm of concentration causing 50% relaxation, rat esophagus
# T1 construct: muscular sample of mucous membrane in esophgus exentrated from a rat; from tissue; host or cells: rat oesophagus, muscularis mucosae
# digestive tract = test: Action on Hypermotility of Digestive Tract (acceleration of gastric emptying, phenol red); type: in vivo; settings: Rattus norvegicus, oral, rats fasted for 24 hours, phenol red 30 min after administration
# Method: The compounds obtained by Examples 1, 2 and 5 as well as exemplar known compounds (Metocloplamide and Cysapride) were selected as Test Compounds, and an action of the compounds for accelerating gastric emptying was checked in accordance with the method described by Yokochi et al [" (which can be translated as --Bulletin of Pharmacological Society of Japan--)", Vol. 92, page 297 (1988 )].
# Namely, the test compound was orally administered in an amount of 0.3, 1.0, 3.0 or 10 mg/kg to rats fasted for 24 hours, and after 30 minutes from the administration, a coloring matter in a constant amount (phenol red, 100 μg) was also orally administered.
# Rate of gastric emptying=100-(B/A)×100
# A: Dosing amount of coloring matter, and
# B: Remaining amount of coloring matter.
# Rate of acceleration=(C-D)×100
# C: Rate of gastric emptying in Test Group, and
# D: Rate of gastric emptying in Control Group given no Test Compound.
# dopamine D2 receptor = test: Anti-Dopamine Action (general symptoms including catalepsy and blepharoptosis); type: in vivo, rat
# Method: The compound was orally administered to rats in amount of 100, 300 or 1000 mg/kg to observe for 2 days general symptoms including catalepsy and blepharoptosis due to antagonistic action of the compound to dopamine D2 receptor.
# [1] = oral, rats, observed for 2 days
# T1 sequence (Q62758 whole entry): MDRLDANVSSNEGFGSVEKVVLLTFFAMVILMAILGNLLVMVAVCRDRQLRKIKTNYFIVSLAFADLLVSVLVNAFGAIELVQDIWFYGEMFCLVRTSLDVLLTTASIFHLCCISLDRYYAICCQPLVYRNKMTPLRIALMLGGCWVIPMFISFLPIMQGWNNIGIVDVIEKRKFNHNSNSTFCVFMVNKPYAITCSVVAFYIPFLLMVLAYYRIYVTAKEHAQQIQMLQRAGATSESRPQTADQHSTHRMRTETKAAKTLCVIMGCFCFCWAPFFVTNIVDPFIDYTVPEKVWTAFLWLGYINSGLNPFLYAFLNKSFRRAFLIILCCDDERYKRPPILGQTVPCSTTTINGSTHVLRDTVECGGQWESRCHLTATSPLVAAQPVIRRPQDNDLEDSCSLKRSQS
SMILES,EC50 (5-HT4 receptor) [nM],ED50 (digestive tract) [mg/kg],"Influence on central nervous system, 1000 mg/kg (dopamine D2 receptor; [1])",other results
"CC1Cc2c(N)c(Cl)cc(C(=O)NCCC34CCCN3CCC4)c2O1 (single isomer, unassigned; (+)) [Example 4, (+)-4-Amino-N-[2-(1-azabicyclo[3.3.0]octan-5-yl)ethyl]-5-chloro-2-methyl-2,3-dihydrobenzo[b]furan-7-carboxamide . 1/2 fumarate]",50.1,,,
"CC1Cc2c(N)c(Cl)cc(C(=O)NCCC34CCCN3CCC4)c2O1 (single isomer, unassigned; (-)) [Example 3, (-)-4-Amino-N-[2-(1-azabicyclo[3.3.0]octan-5-yl)ethyl]-5-chloro-2-methyl-2,3-dihydrobenzo[b]furan-7-carboxamide . 1/2 fumarate]",20,,,
"CC1Cc2c(N)c(Cl)cc(C(=O)NCCC34CCCN3CCC4)c2O1 (centres unmarked) [2 (*), 4-Amino-N-[2-(1-azabicyclo[3.3.0]octan-5-yl)ethyl]-5-chloro-2-methyl-2,3-dihydrobenzo[b]furan-7-carboxamide]",39.8,,,
"COc1cc(N)c(Cl)cc1C(=O)NC1CCN(CCCOc2ccc(F)cc2)CC1OC (centres unmarked) [Cisapride, reference compound]",39.8,6.37,++,
"Nc1c(Cl)cc(C(=O)NCCC23CCCN2CCC3)c2c1CCO2 [Example 1, 4-Amino-N-[2-(1-azabicyclo[3.3.0]octan-5-yl)ethyl]-5-chloro-2,3-dihydrobenzo[b]furan-7-carboxamide]",316,2.15,-,
"CC1Cc2c(N)c(Cl)cc(C(=O)NCCC34CCCN3CCC4)c2O1 (centres unmarked) [Example 2, 4-Amino-N-[2-(1-azabicyclo[3.3.0]octan-5-yl)ethyl]-5-chloro-2-methyl-2,3-dihydrobenzo[b]furan-7-carboxamide]",,1.97,-,"Influence on central nervous system, 100 mg/kg (dopamine D2 receptor; [1]): -; Influence on central nervous system, 300 mg/kg (dopamine D2 receptor; oral, rats, 300 mg/kg, observed for 2 days): -"
"CC1(C)Cc2c(N)c(Cl)cc(C(=O)NCCC34CCCN3CCC4)c2O1 [Example 5, 4-Amino-N-[2-(1-azabicyclo[3.3.0]octan-5-yl)ethyl]-5-chloro-2,2-dimethyl-2,3-dihydrobenzo[b]furan-7-carboxamide]",316,1.5,-,
"CC1Oc2c(C(=O)NCCC34CCCN3CCC4)cc(Cl)c(N)c2C1C (centres unmarked) [Example 6, 4-Amino-N-[2-(1-azabicyclo[3.3.0]octan-5-yl)ethyl]-5-chloro-2,3-dimethyl-2,3-dihydrobenzo[b]furan-7-carboxamide]",12.6,,,
"CCC1Cc2c(N)c(Cl)cc(C(=O)NCCC34CCCN3CCC4)c2O1 (centres unmarked) [Example 7, 4-Amino-N-[2-(1-azabicyclo[3.3.0]octan-5-yl)ethyl]-5-chloro-2-ethyl-2,3-dihydrobenzo[b]furan-7-carboxamide]",20,,,
"CC(=O)Nc1c(Cl)cc(C(=O)NCCC23CCCN2CCC3)c2c1CC(C)O2 (centres unmarked) [Example 8, 4-Acetylamino-N-[2-(1-azabicyclo[3.3.0]octan-5-yl)ethyl]-5-chloro-2-methyl-2,3-dihydrobenzo[b]furan-7-carboxamide]",316,,,
"CC1Cc2cc(Cl)cc(C(=O)NCCC34CCCN3CCC4)c2O1 (centres unmarked) [Example 9, N-[2-(1-Azabicyclo[3.3.0]octan-5-yl)ethyl]-5-chloro-2-methyl-2,3-dihydrobenzo[b]furan-7-carboxamide]",100,,,
"CC1Cc2c(N)ccc(C(=O)NCCC34CCCN3CCC4)c2O1 (centres unmarked) [Example 10, 4-Amino-N-[2-(1-azabicyclo[3.3.0]octan-5-yl)ethyl]-2-methyl-2,3-dihydrobenzo[b]furan-7-carboxamide]",1000,,,
"CCN(CC)CCNC(=O)c1cc(Cl)c(N)cc1OC [Metoclopramide, 4-amino-5-chloro-N-[(2-diethylamino)ethyl]-2-methoxybenzamide, reference compound]",,16.3,,"Influence on central nervous system, 100 mg/kg (dopamine D2 receptor; rat, in vivo, po): ++"
